# Results taken from US20150105252A1, “SUBSTITUTED PYRAZOLES AS HERBICIDES” (E I DU PONT DE NEMOURS AND COMPANY, priority 2013, published 2015).
# How the values were obtained:
# [1] = system: ducksalad; test: Test B flood; format: in vivo, Heteranthera limosa; conditions: 250 g ai/ha, visual rating on 0 to 100 scale (0 no effect, 100 complete control), 13 to 15 days
# In short: (§1)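 Visual ratings on a 0–100 scale, where 0 means no effect and 100 means complete control, were assigned by comparison with controls 13 to 15 days after treatment. Compounds went into paddy water over 2-leaf plants flooded to 3 cm.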
# [2] = system: wheat; test: Test C preemergence; format: in vivo, Triticum aestivum; conditions: for Wheat plant response rating / Plant response rating, Wheat: preemergence; for Plant response rating, Wheat: 125 g ai/ha, scale 0 to 100, 0 = no effect, 100 = complete control
# In short: (§2)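 Greenhouse pot test: preemergence application onto freshly seeded loam/sand mix, postemergence application onto seedlings (1–4 leaves, 2–18 cm) in peat-vermiculite substrate. Responses scored visually 13 to 15 days later relative to controls, where 0 means no effect and 100 means complete control; a dash indicates no result.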
# [3] = system: galium; test: Test C preemergence; format: in vivo, Galium aparine; conditions: for Galium plant response rating / Plant response rating, Galium: preemergence; for Plant response rating, Galium: 125 g ai/ha, scale 0 to 100, 0 = no effect, 100 = complete control
# In short: as §2
# [4] = system: rice; test: Test B flood; format: in vivo, Oryza sativa; conditions: 250 g ai/ha, visual rating on 0 to 100 scale (0 no effect, 100 complete control), 13 to 15 days
# In short: as §1
# [5] = system: pigweed; test: Test A preemergence; format: in vivo, Amaranthus retroflexus; conditions: preemergence; for Pigweed plant response rating (0 to 100 scale): visual injury approx. 10 days after treatment
# In short: (§3)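 Injury readout: eye-scored versus untreated controls, 0 to 100. Exposure period: ~10 days, greenhouse. Application: soil-directed spray over sown seed (pre) or spray on seedlings 2–10 cm tall with one or two leaves (post), compound carried in non-phytotoxic solvent including surfactant.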
# [6] = system: corn; test: Test A postemergence; format: in vivo, Zea mays
# In short: as §3
# [7] = system: lambsquarters; test: Test C preemergence; format: in vivo, Chenopodium album; conditions: for Lambsquarters plant response rating: scale 0 to 100 (0 no effect, 100 complete control)
# Source text: (§4) Seeds of plant species selected from blackgrass (Alopecurus myosuroides), ryegrass, Italian (Italian ryegrass, Lolium multiflorum), wheat (winter wheat, Triticum aestivum), galium (catchweed bedstraw, Galium aparine), corn (Zea mays), crabgrass, large (large crabgrass, Digitaria sanguinalis), foxtail, giant (giant foxtail, Setaria faberii), johnsongrass (Sorghum halepense), lambsquarters (Chenopodium album), morningglory (Ipomoea coccinea), nutsedge, yellow (yellow nutsedge, Cyperus esculentus), pigweed (redroot pigweed, Amaranthus retroflexus), ragweed (common ragweed, Ambrosia elation), soybean (Glycine max), barnyardgrass (Echinochloa crus-galli), oilseed rape (Brassica napus), waterhemp (common waterhemp, Amaranthus rudis), oat, wild (wild oat, Avena fatua), kochia (Kochia scoparia), Surinam grass (Brachiaria decumbens), foxtail, green (green foxtail, Setaria viridis), goosegrass (Eleusine indica), bromegrass, downy (downy bromegrass, Bromus tectorum), nightshade (eastern black nightshade, Solanum ptycanthum), cocklebur (common cocklebur, Xanthium strumarium), cupgrass, woolly (woolly cupgrass, Eriochloa villosa), bermudagrass (Cynodon dactylon), sunflower, (common oilseed sunflower, Helianthus annuus), Russian thistle (Salsola kali), and velvetleaf (Abutilon theophrasti) were planted into a blend of loam soil and sand and treated preemergence with test chemicals formulated in a non-phytotoxic solvent mixture which included a surfactant.
# (§5) At the same time, plants selected from these crop and weed species and also chickweed (common chickweed, Stellaria media), canarygrass (littleseed canarygrass, Phalaris minor), and deadnettle (henbit deadnettle, Lamium amplexicaule), were planted in pots containing Redi-Earth® planting medium (Scotts Company, 14111 Scottslawn Road, Marysville, Ohio 43041) comprising spaghnum peat moss, vermiculite, wetting agent and starter nutrients and treated with postemergence applications of test chemicals formulated in the same manner. Plants ranged in height from 2 to 18 cm (1- to 4-leaf stage) for postemergence treatments. Treated plants and controls were maintained in a greenhouse for 13 to 15 days, after which time all species were compared to controls and visually evaluated. Plant response ratings, summarized in Table C, are based on a scale of 0 to 100 where 0 is no effect and 100 is complete control. A dash (-) response means no test result.
# [8] = system: waterhemp; test: Test C preemergence; format: in vivo, Amaranthus rudis; conditions: for Waterhemp plant response rating / Plant response rating, Waterhemp: preemergence; for Plant response rating, Waterhemp: 125 g ai/ha, scale 0 to 100, 0 = no effect, 100 = complete control
# In short: as §2
# [9] = system: wheat; test: Test A postemergence; format: in vivo, Triticum aestivum
# In short: as §3
# [10] = system: lambsquarters; test: Test C postemergence; format: in vivo, Chenopodium album; conditions: for Plant response rating (scale of 0 to 100 where 0 is no effect and 100 is complete control), Lambsquarters: Postemergence, 31 g ai/ha, visually evaluated after 13 to 15 days; for Lambsquarters plant response rating / Plant response rating, Lambsquarters: postemergence; for Lambsquarters plant response rating: 62 g ai/ha, scale 0 to 100
# In short: as §2
# [11] = system: barnyardgrass; test: Test C postemergence; format: in vivo, Echinochloa crus-galli; conditions: for Plant response rating (scale of 0 to 100 where 0 is no effect and 100 is complete control), Barnyardgrass: Postemergence, 31 g ai/ha, visually evaluated after 13 to 15 days; for Barnyardgrass plant response rating / Plant response rating, Barnyardgrass: postemergence; for Barnyardgrass plant response rating: 62 g ai/ha, scale 0 to 100
# Source text: as §4, §5
# [12] = system: wheat; test: Test C postemergence; format: in vivo, Triticum aestivum; conditions: for Wheat plant response rating / Plant response rating, Wheat: postemergence; for Wheat plant response rating: scale 0 to 100
# In short: as §2
# [13] = system: crabgrass, large; test: Test A postemergence; format: in vivo, Digitaria sanguinalis
# In short: as §3
# [14] = system: crabgrass, large; test: Test A preemergence; format: in vivo, Digitaria sanguinalis; conditions: preemergence; for Crabgrass, Large plant response rating (0 to 100 scale): 125 g ai/ha, visual injury approx. 10 days after treatment; for Crabgrass, Large plant response rating: 500 g ai/ha, visual injury after approx. 10 days, 0 to 100 scale (0 no effect, 100 complete control)
# In short: as §3
# [15] = 31 g ai/ha, visual rating, scale 0 to 100 (0 no effect, 100 complete control), 13 to 15 days
# [16] = 62 g ai/ha, scale 0 to 100 (0 no effect, 100 complete control), 13 to 15 days
# [17] = 500 g ai/ha, visual injury after approx. 10 days, 0 to 100 scale (0 no effect, 100 complete control)
# [18] = Postemergence, 500 g ai/ha, 0 to 100 scale (0 no effect, 100 complete control)
# [19] = postemergence, 125 g ai/ha, about 10 days, visual rating on 0 to 100 scale (0 no effect, 100 complete control)
# [20] = 250 g ai/ha, scale 0 to 100 (0 no effect, 100 complete control)
# [21] = 125 g ai/ha, scale 0 to 100, 0 no effect, 100 complete control
# [22] = 250 g ai/ha, scale 0 to 100, 0 is no effect, 100 is complete control
# [23] = Postemergence, 125 g ai/ha, 0 to 100 scale, 0 no effect, 100 complete control
Compound,"Plant response rating, Ducksalad [1]","Wheat plant response rating [2, 15]","Wheat plant response rating [2, 16]","Plant response rating, Wheat ([2]; 13 to 15 days)","Galium plant response rating [3, 16]","Plant response rating, Galium ([3]; 13 to 15 days)","Plant response rating, Rice [4]","Pigweed plant response rating [5, 17]","Corn plant response rating [6, 18]","Corn plant response rating [6, 19]","Waterhemp plant response rating [8, 15]","Waterhemp plant response rating [8, 16]","Plant response rating, Waterhemp ([8]; 13 to 15 days)","Wheat plant response rating [9, 18]","Plant response rating (scale of 0 to 100 where 0 is no effect and 100 is complete control), Lambsquarters [10]",Lambsquarters plant response rating [10],"Plant response rating, Lambsquarters [10, 20]","Plant response rating, Lambsquarters [10, 21]","Plant response rating (scale of 0 to 100 where 0 is no effect and 100 is complete control), Barnyardgrass [11]",Barnyardgrass plant response rating [11],other results
CCOc1cc(C(=O)NC2CC2)nn1Cc1ccnc(OC(F)F)c1 [Compound 133],90,0,45,90,95,98,20,100,80,60,85,100,100,90,50,55,90,90,5,5,"Plant response rating (scale of 0 to 100), Wheat ([2]; Preemergence, 250 g ai/ha): 90; Plant response rating (scale of 0 to 100), Galium ([3]; Preemergence, 250 g ai/ha): 100; Pigweed plant response rating ([5]; 125 g ai/ha, visual injury, 0 to 100 scale, approx. 10 days): 100; Plant response rating (scale of 0 to 100), Lambsquarters ([7]; Preemergence, 250 g ai/ha): 100; Lambsquarters plant response rating ([7]; preemergence, 31 g ai/ha, visual rating, 13 to 15 days): 75; Lambsquarters plant response rating ([7]; preemergence, 62 g ai/ha, 13 to 15 days): 100; Plant response rating, Lambsquarters ([7]; preemergence, 125 g ai/ha, 13 to 15 days, scale 0 to 100, 0 = no effect, 100 = complete control): 100; Plant response rating (scale of 0 to 100), Waterhemp ([8]; Preemergence, 250 g ai/ha): 100; Wheat plant response rating [9, 19]: 40; Plant response rating, Barnyardgrass [11, 20]: 15; Plant response rating, Barnyardgrass [11, 21]: 5; Plant response rating (scale of 0 to 100 where 0 is no effect and 100 is complete control), Wheat ([12]; Postemergence, 31 g ai/ha, visually evaluated after 13 to 15 days): 5; Wheat plant response rating ([12]; 62 g ai/ha): 5; Plant response rating, Wheat [12, 20]: 30; Plant response rating, Wheat [12, 21]: 15"
Cc1cc(C(=O)NC(C)C)nn1Cc1ccnc(C(F)(F)F)c1 [Compound 197],95,0,0,5,100,98,10,100,90,30,100,100,100,60,55,55,85,60,0,0,"Wheat plant response rating [2, 22]: 80; Galium plant response rating [3, 15]: 90; Galium plant response rating [3, 22]: 95; Crabgrass, Large plant response rating [13, 18]: 100; Crabgrass, Large plant response rating [13, 19]: 80; Pigweed plant response rating (0 to 100 scale) ([5]; 125 g ai/ha): 100; Waterhemp plant response rating [8, 22]: 100; Wheat plant response rating [9, 23]: 0; Crabgrass, Large plant response rating (0 to 100 scale) [14]: 100; Crabgrass, Large plant response rating [14]: 100; Plant response rating, Barnyardgrass [11, 20]: 10; Plant response rating, Barnyardgrass [11, 21]: 5; Plant response rating, Wheat [12, 20]: 5; Wheat plant response rating [12]: 5"
CCCNC(=O)c1cc(CCC)n(Cc2cc(C(F)(F)F)nn2C)n1 [Compound 198],100,5,35,90,95,100,60,100,90,90,98,98,100,90,20,50,85,75,5,15,"Wheat plant response rating [2, 22]: 90; Galium plant response rating [3, 15]: 98; Galium plant response rating [3, 22]: 100; Crabgrass, Large plant response rating [13, 18]: 100; Crabgrass, Large plant response rating [13, 19]: 90; Pigweed plant response rating (0 to 100 scale) ([5]; 125 g ai/ha): 100; Waterhemp plant response rating [8, 22]: 100; Wheat plant response rating [9, 23]: 60; Crabgrass, Large plant response rating (0 to 100 scale) [14]: 100; Crabgrass, Large plant response rating [14]: 100; Plant response rating, Barnyardgrass [11, 20]: 35; Plant response rating, Barnyardgrass [11, 21]: 15; Plant response rating, Wheat [12, 20]: 10; Wheat plant response rating [12]: 5"
